# Laboratory results as given in US9750242B2, “Nitrite salts as poisons in baits for omnivores” (priority 2007, dated 2017).
# Like-named read-outs stand apart in the source and are kept apart here.
# How the values were obtained:
# feral pigs [1] = assay: Bait delivery trial: sodium nitrite to feral pigs in food; assay type: in vivo, feral pig
# Procedure: The trials were conducted in October 2005 and June 2006. Both trials were designed to test the hypothesis that SN would be lethal to feral pigs when they consumed the toxin freely in food. […] Before the toxin trial, each feral pig was pre-fed daily for 10 days with the bait substrate they were to receive during the toxin trial (bait or dry wheat). During the trial, six feral pigs acted as controls, receiving no toxin, but receiving bait substrate (carrier material). Three of these received wheat and three received the manufactured baits of the type described in Example 2. The remaining 18 feral pigs were divided into three groups of six animals. Three pigs in each group received 250 or 500 g (depending on body size and therefore total toxic dose to deliver) of wheat and the other three received one or two the baits (again, amount of toxin dependent). […] Feral pigs were observed every 15 minutes for 6 hours, then hourly for 6 hours, then at euthanasia 12 hours after clinical signs developed (if they remained alive). Each dose rate contained six animals divided evenly amongst two bait carrier materials. Six controls were used.
# feral pigs [2] = conditions: for Mean peak Met hb: approximate peak
# Description: The captive feral pig colony at Robert Wicks Pest Animal Research Centre (Queensland Department of Natural Resource, Mines and Water) was comprised of feral pigs harvested by commercial harvesters in the area surrounding Inglewood, Queensland. A variety of sexes, ages and sizes were drawn at random from the captive colony and used in these trials. Feral pigs were housed in the purpose built feral pig accommodation.
# This trial occurred in January 2006. The trial design is set out in FIG. 5. Twenty-one fasted captive feral pigs were anaesthetised with ketamine (20 mgkg^−1) and xylazine (1.2 mgkg^−1) by intramuscular injection with a 16 gauge needle into the quadriceps muscle. […] The resulting liquid was then administered by oesophageal gavage to an individual feral pig. A number of sodium nitrate dosages were trialled on different groups of feral pigs. After administration, feral pigs were observed carefully for clinical signs and death. […] Each dose rate contained three feral pigs.
# This was done on an identical manner to the placebo feral pigs.
# Feral pigs were then sampled opportunistically at various times over the following minutes or hours. […] Feral pigs which recovered from anaesthetic quickly, or were large, were sampled less frequently than other feral pigs. All feral pigs were also blood sampled immediately after death (within 1 minute). The blood samples were used to assess Methaemoglobin levels (Met […] Hb). An automated radio-oximeter (model ABL520 supplied by Radiometer Copenhagen) was used for blood Met Hb analysis. The Met Hb data from each individual within a group was pooled to provide dose response curves for multiple feral pigs administered at a single dose rate. The feral pigs which received 135 mgkg^−1 were not blood sampled until after death. A post mortem examination was conducted on all feral pigs.
# Serial Met Hb levels were pooled for each group of feral pigs receiving a single dose rate and plotted against time. Trend-lines were fitted to the data. Logarithmic functions were used for the three higher dose rates, while a polynomial trend line was fitted to the 90 mgkg^−1 feral pig group. […] This program makes few assumptions about data and consists of a range of univariate, multivariate and graphical routines for analysing matrices of samples. Specifically, ordination by multidimensional scaling (MDS) was used to visually differentiate feral pigs based on variables (time to death, peak Met haemoglobin levels, time to dyspnoea and time to vomiting). One factor was used, dose rate. Data was normalized and 30 random resets occurred. ANOSIM was used to determine whether significant differences between these variables were due to dose rate. SIMPER (a function of Primer) was used to determine dissimilarity between dose rates, or what dose rates were most dissimilar.
# dingos = conditions: bait delivered 1080, captive trials; cited from earlier work
# [3] = 44.8 kg male with profuse bleeding into the thorax
# [4] = gavage, doses of 135 mgkg^-1 or above, nine feral pigs
smiles,measurement,setting,value
"O=NO [SN, Sodium nitrite]",deaths,"feral pigs [1]; 135 mgkg^-1 in bait substrate, six animals",none died
same,deaths,"feral pigs [1]; 270 mgkg^-1 consumed, five animals",one of these died
same,deaths,"feral pigs [1]; 540 mgkg^-1 consumed in either bait substrate, 2 for each substrate",4/4
same,mean time that clinical signs were displayed,feral pigs [1]; all animals,84 ± 41 min
same,mean time to death (S.D.),feral pigs [1]; all dead animals,141 ± 49 min
same,mean time that clinical signs were displayed,feral pigs [1]; animals receiving the full 540 mgkg^-1 dose,80 ± 51 min
same,mean time to death (S.D.),feral pigs [1]; animals that received the full 540 mgkg^-1 dose,122 ± 49 min
same,outcome of one animal with partial dose,feral pigs [1]; approximately 400 mgkg^-1 in wheat (370 g of 500 g eaten),still died
same,Approximate bait lethal dose,Pig,~310 mg/kg
same,Approximate gavage lethal dose,Pig,~103 mg/kg
same,Approximate lethal SN dose,Pig; body size 50 kg,~15.5 gm
same,Approximate bait lethal dose,Northern brown bandicoot,~696 mg/kg
same,Approximate gavage lethal dose,Northern brown bandicoot,~232 mg/kg
same,Approximate lethal SN dose,Northern brown bandicoot; body size 2 kg,~1.4 gm
same,Approximate bait lethal dose,Common brushtail possum,~489 mg/kg
same,Approximate gavage lethal dose,Common brushtail possum,~163 mg/kg
same,Approximate lethal SN dose,Common brushtail possum; body size 4 kg,~2.0 gm
same,"peak Met Hb level, individual pig",feral pigs [2]; [3],90.1%
same,"time to death after gavage, individual pig",feral pigs [2]; [3],47 min
same,post mortem abnormalities,feral pigs [2]; 90 mgkg^-1 group,no abnormalities were detected
same,"post mortem abnormalities, only consistent sign",feral pigs [2]; all animals which died following nitrite ingestion,dark or chocolate coloured blood and subsequent discolouration of organs and tissues which are well vascularised
same,Met Hb levels in surviving pigs,"feral pigs [2]; gavage 90 mg/kg, 14 hours post administration, two survivors",near zero
same,deaths of animals dosed,feral pigs [2]; gavage 90 mgkg^-1,one of three
same,period of lethargy (lessened gradually),feral pigs [2]; gavage 90 mgkg^-1,4 to 6 h
same,Death/survival,"feral pigs [2]; gavage 90 mgkg^-1, 3 feral pigs",1/2
same,time to death of one animal after dosing,"feral pigs [2]; gavage 90 mgkg^-1, following blood sampling",approximately 5 hours
same,vomiting,"feral pigs [2]; gavage 90 mgkg^-1, three hours after intoxication",two of three animals
same,Mean peak Met hb,"feral pigs [2]; gavage 90 mgkg^-1, two from three animals assessed",55^3%
same,Mean time to death,feral pigs [2]; gavage 135 mgkg^-1,115 ± 18 min
same,Death/survival,"feral pigs [2]; gavage 135 mgkg^-1, 3 feral pigs",3/0
same,Mean peak Met hb,feral pigs [2]; gavage 135 mgkg^-1,89 ± 6%
same,Mean time to death,feral pigs [2]; gavage 180 mgkg^-1,87 ± 16 min
same,Death/survival,"feral pigs [2]; gavage 180 mgkg^-1, 3 feral pigs",3/0
same,Mean peak Met hb,feral pigs [2]; gavage 180 mgkg^-1,83 ± 8%
same,Mean time to death,feral pigs [2]; gavage 180 mgkg^-1 with Na2CO3,52 ± 26 min
same,Death/survival,"feral pigs [2]; gavage 180 mgkg^-1 with Na2CO3 (30 g), 3 feral pigs",3/0
same,Mean peak Met hb,feral pigs [2]; gavage 180 mgkg^-1 with Na2CO3,80 ± 15%
same,"in-coordination, paddling and short convulsive seizures","feral pigs [2]; gavage >=135 mgkg^-1, close to time of death",two of nine animals
same,time to dyspnoea after gavage,"feral pigs [2]; gavage >=135 mgkg^-1, most animals",30 to 60 min
same,vomiting,"feral pigs [2]; gavage >=135 mgkg^-1, nine animals",Seven animals vomited between 1-4 times
same,effect on blood Met Hb values,"feral pigs [2]; gavage, all feral pigs that were sampled",rapid increases in blood Met Hb values
same,range of time to death,"feral pigs [2]; gavage, doses of 135 mgkg^-1 or above",42 to 130 min
same,deaths,feral pigs [2]; [4],All nine feral pigs that received doses of 135 mgkg^−1 or above died
same,mean time to death (S.D.),feral pigs [2]; [4],106 ± 75 min
same,mean peak Met Hb level in killed feral pigs,"feral pigs [2]; gavage, killed feral pigs",82%
same,Approximate bait lethal dose,Rat,~291 mg/kg
same,Approximate gavage lethal dose,Rat,~97 mg/kg
same,Approximate lethal SN dose,Rat; body size 0.1 kg,~0.03 gm
same,Approximate bait lethal dose,Raccoon,~150 mg/kg
same,Approximate lethal SN dose,Raccoon; body size 3 kg,~0.75 gm
same,Approximate bait lethal dose,Mouse,~705 mg/kg
same,Approximate gavage lethal dose,Mouse,~235 mg/kg
same,Approximate lethal SN dose,Mouse; body size 0.03 kg,~0.02 gm
"O=C([O-])[O-].[Na+].[Na+] [Sodium carbonate, sodium carbonate, reference compound]",synergism with SN (Met Hb curves),"feral pigs [2]; 30 g sodium carbonate followed by 180 mgkg^-1 SN, gavage",did not appear to act as a synergist
"O=C(O)CF [Example 1080, sodium fluoroacetate]",LD50 dose,dingos,0.11 mg/kg
